Laboratory results published in patent publication US20200345021A1, “METHOD AND SYSTEM FOR ENHANCING THE EFFICACY USING IONIZED/A[…] PEROXIDE IN REDUCING MICROBIAL POPULATIONS, METHOD OF USE THEREOF” (priority 2019, published 2020).
Marks after values point to notes of the source that are not given here.

System: Listeria innocua
Assay: Effect of cold plasma activation on efficacy of ionized/aerosolized H2O2 against Listeria innocua (Study 2)
Type: cell-based
Conditions: for Reductions of Listeria on all types and surfaces of fresh produce except the tomato stem scar area: optimized conditions
Text: To minimize the risk of possible bacteria becoming airborne during treatments, attenuated and non-pathogenic bacteria were used in the study. Two strains of non-pathogenic S. Typhimurium (ATCC 53647 and 53648) and three strains of L. innocua (ATCC 33090, ATCC 51742 and ATCC BAA680) were obtained from American Type Culture Collection (ATCC) (Manassas, Va., USA). Further studies used E. coli O157:H7 (ATCC 700728), S. Typhimurium (ATCC 53647 and 53648), and L. innocua (ATCC 33090) obtained from American Type Culture Collection (ATCC) (Manassas, Va., USA) and maintained as a part of the culture collection at the USDA Eastern Regional Research Center (Wyndmoor, Pa. USA). The bacteria were made to be resistant to nalidixic acid by successive growth in Trypic Soy Broth (TSB) (Difco, Sparks, Md., USA) with increasing nalidixic acid concentrations. All strains were stored at −80° C. in 1 mL of TSB containing 10% glycerol. Working cultures of S. Typhimurium and L. innocua were maintained in 9 mL TSB (supplemented with 100 μg/mL nalidixic acid for S. Typhimurium) at 4° C. after incubating at 37° C. for […], respectively, and sub-cultured each time.
Each strain of S. Typhimurium and L. innocua was cultured in 9 mL TSB (supplemented with 100 μg/mL nalidixic acid for S. Typhimurium) and incubated at 37° C. for 40 h and 48 h, respectively, harvested by centrifugation at 4000×g for 10 min at 4° C., and resuspended in 9 mL sterile Buffered Peptone Water (BPW; Difco). The pellets were resuspended in BPW to form cell suspensions with a final concentration of 108˜10^9 CFU/mL. Subsequently, suspended pellets of two strains of Salmonella and three strains of L. innocua were combined to obtain two separate culture cocktails.
Grape tomatoes, granny smith apples, romaine lettuce and cantaloupes were purchased from local markets (Philadelphia, Pa., USA) and kept at 10° C. prior to use. Fruits and vegetables were removed from 10° C. refrigeration and equilibrated to ambient temperature before being inoculated. Romaine lettuce was divided into upper green leaf and midrib tissues. Six tomatoes, six pieces (2×2 cm) of apple skins, five pieces (3×3 cm) of Romaine lettuce upper leaves, five pieces (3 cm length) of Romaine lettuce midrib area and six pieces (2×2 cm) of cantaloupe rinds with 2×3 mm thickness of flesh were used for each treatment per replicate. Bach piece w as spot inoculated with 10 μL of Salmonella and L. innocua by depositing droplets with a micropipette. The inoculated samples were dried in a bio-hood for 1 h (for tomato surfaces, romaine lettuce, apple skins and cantaloupe rinds) or 2 h (for tomato stem scars) at ambient temperature.
Produce items were placed onto a sterile test tube rack with the inoculated area facing up and the rack with produce pieces were placed inside of a treatment chamber (12×12×24 inch).
Therefore, each kind of produce was treated with and without cold plasma ionized under the same optimized conditions.
After each treatment, the tomato stem scars and surfaces with the inoculated bacteria were removed using a pair of sterile scissors. Each type of produce item from the same treatment was combined (total weight: 1.51±0.29 g for tomato stem scars; 2.07±0.15 g for tomato surfaces; 6.37±0.92 g for apple skins; 1.62±0.34 g for Romaine lettuce upper leaves: 13.30±2.97 g for Romaine lettuce midrib tissues: 9.58±1.26 g for cantaloupe rinds) and transferred into an 80 mL filtered stomacher bag. After addition of 30 mL BBL buffered peptone water into the bag, the sample in the bag was homogenized using a mini blender (Mini Mix CC, Interscience laboratories Inc., Woburn, Mass., USA) for 2 min at a setting of 4. […] Tryptic Soy Agar with 200 μg/mL pyruvate acid and 100 μg/mL nalidixic acid (TSA-PN) and PALCAM Agars (Difco) were used for the enumeration of S. Typhimurium and L. innocua, respectively.

[1] = Tomato-stem scar, three cycles of 20 s spray time plus 20 min dwell time, listed as H2O2 + cold plasma

OO [H2O2, hydrogen peroxide]
Listeria reductions for cantaloupes and two locations on lettuces: 2.61 to 3.40 log CFU/piece
Populations of Listeria innocua (Cantaloupe rind, 30 s spray time + 30 min dwell, ND1: not detectable (detection limit 0.70 log CFU/piece), listed as H2O2 + cold plasma): ND1^c
Reductions of Listeria innocua (Cantaloupe rind, 30 s spray time + 30 min dwell, listed as H2O2 + cold plasma): 5.10 ± 0.30^x log CFU/piece
Populations of Listeria innocua (Granny Smith apple, 8 s spray time + 30 min dwell, ND1: not detectable (detection limit 0.70 log CFU/piece), listed as H2O2 + cold plasma): ND1^c
Reductions of Listeria innocua (Granny Smith apple, 8 s spray time + 30 min dwell, listed as H2O2 + cold plasma): 5.24 ± 0.22^x log CFU/piece
Populations of Listeria innocua (Romaine lettuce-midrib, 30 s spray time + 30 min dwell, ND2: not detectable (detection limit 0.76 log CFU/piece), listed as H2O2 + cold plasma): ND2^c
Reductions of Listeria innocua (Romaine lettuce-midrib, 30 s spray time + 30 min dwell, listed as H2O2 + cold plasma): 5.21 ± 0.11^x log CFU/piece
Populations of Listeria innocua (Romaine lettuce-upper leaf, 30 s spray time + 30 min dwell, ND2: not detectable (detection limit 0.76 log CFU/piece), listed as H2O2 + cold plasma): ND2^c
Reductions of Listeria innocua (Romaine lettuce-upper leaf, 30 s spray time + 30 min dwell, listed as H2O2 + cold plasma): 5.19 ± 0.08^x log CFU/piece
Populations of Listeria innocua [1]: 2.94 ± 0.89^c log CFU/piece
Reductions of Listeria innocua [1]: 2.62 ± 0.89^x log CFU/piece
Reductions of Listeria innocua (Tomato-stem scar, three cycles of 20 s spray time plus 20 min dwell time, listed as iHP): 2.36 log CFU/piece
Populations of Listeria innocua (Tomato-surface, 8 s spray time + 30 min dwell, ND1: not detectable (detection limit 0.70 log CFU/piece), listed as H2O2 + cold plasma): ND1^c
Reductions of Listeria innocua (Tomato-surface, 8 s spray time + 30 min dwell, listed as H2O2 + cold plasma): 5.16 ± 0.20^x log CFU/piece
Reductions of Listeria on all types and surfaces of fresh produce except the tomato stem scar area (listed as cold plasma-activated hydrogen peroxide (H2O2)): > 5 log CFU/piece
Reductions of Listeria on all types and surfaces of fresh produce except the tomato stem scar area (listed as hydrogen peroxide (H2O2) with cold plasma): more than 5 log CFU/piece
Reductions of Listeria on all types and surfaces of fresh produce except the tomato stem scar area (listed as iHP): more than 5 log CFU/piece
